From patent publication US20120190707A1, “SELECTIVE INHIBITORS OF AKT AND METHODS OF USING SAME” (priority 2008, published 2012) come the findings set out here.

SMILES strings stand for the structures.

Data set [1] deals with UACC 903 melanoma xenografts. The experiment in a line: UACC 903 melanoma xenografts in nude mice. The class given is in vivo. The method, then: (A) Nude mice were subcutaneously injected with UACC 903 cells and tumors were allowed to reach an approximate size of 1 mm^3 before intraperitoneal treatment was started; treatment was performed twice per week for 3 weeks with the indicated concentrations of BI-69A11. Each of the experimental groups consisted of 10 mice that were subjected to treatment with the indicated concentration of BI-69A11. […] Tumors were measured with calipers at the indicated time points. The mice were sacrificed and tumors harvested at the end of this period were measured and weighed to determine tumor volume and mass. Blue bars represent control-vehicle treated group; yellow bars represent the 5 mg/Kg treatment group; the orange and green bars represent the 1 and 2 mg/Kg treatment groups, respectively. (B) Analysis of cell death in the tumors was performed using Tunel staining. Shown are representative pictures for control tumors (right) and a treatment group (5 mg/Kg; left). (C) Quantification of Tunel staining in the different tumor groups. Samples from each of the tumors were subjected to Tunel staining which was quantified by Aperio ImageScope and confirmed by visual inspection of representative samples. The percentage of Tunel positive cells is indicated in the graph. […]
In light of the efficient cell death elicited by BI-69A11, we assessed its activity on tumor growth in mouse xenografts. […]
For the tumor studies, UACC 903 cells […] were injected subcutaneously and tumor size was monitored using calipers twice per week. […] At the end of the study, tumors were harvested, weighed and measured.
For the tunel assay and quantitative analysis, the detection of nuclei with fragmented DNA by terminal deoxyribonucleotidyl transferase-mediated dUTP nick end labeling (TUNEL) was accomplished using the ApopTag Peroxidase In situ Apoptosis Detection Kit (Chemicon, Temecula, Calif., US) according to the instructions of the manufacturer. […]

The next data set has as its system MCF7 cells. The experiment in a line: Cell death by trypan blue staining, MCF7. The data set is classed as cell-based. The note with it: 5 micro.M, 4 hours. The method, then:
(§1) (A) MeWo melanoma cells growing in 60 mm plates were treated with the indicated concentration of the inhibitor for 4 h before proteins were prepared for western blot analysis using the indicated antibodies. Level of beta.actin was monitored as a control for protein loading. (B) Experiment was performed as indicated in panel A, except that cells were harvested after 24 h for analysis of cell death using trypan blue staining. (C) Melanoma (MeWo), prostate cancer (PC3) and breast cancer (MCF7) cells were treated with BI-69A11 at the indicated concentrations; levels of AKT phosphorylation or expression were assessed 4 h later. The level of beta.actin used as a control for protein loading. (D) Experiment was performed as indicated in panel C, except that cells were harvested after 4 h for analysis of cell death using trypan blue staining.
For the proliferation assays, cells were treated as described above. However, instead of scraping cells into the serum-free medium, floating cells were collected in a 15 mL centrifuge tube whereas adherent cells trypsinized gently. The total cell population was pooled and counted on a hemocytometer after staining with Trypan Blue.

The conditions of data set [2]: mouse, in vivo.
For a further data set, the system named is NF-kB pathway. The experiment in a line: TNF-α stimulated NF-kB pathway (IKK, IkB) western analysis in UACC903 cells. The note with it: 10 μM for 1 h prior to 20 ng/ml TNF-α. The class given is cell-based, human. The procedure: UACC903 melanoma cells were exposed to 10 μM BI-69A11 or vehicle control for 1 h prior to treatment with 20 ng/ml TNF-α. Cells were harvested at the indicated time points and whole cell lysates were subjected to western analysis for phosphorylated IKK, total IKK, phosphorylated IkB, total IkB, and PLCγ (as loading control).
FIG. 11 describes how selected BI-69A11 analogs inhibit the NFkB pathway. UACC903 melanoma cells were exposed to vehicle control, 10 μM BI-69A11, or 10 μM analog for 1 h prior to stimulation with 20 ng/ml TNF-α as indicated. Cells were harvested at 5 min post-stimulation and whole cell lysates were subjected to western analysis for phosphorylated IKK, total IKK, phosphorylated IkB, total IkB, and […] (as loading control).
We first tested whether BI-69A11 inhibited the activation of the canonical NF-kB pathway (FIG. 10) in intact cells. […] In contrast, in cells treated with BI-69A11, both IKK and IkB phosphorylation were inhibited in response to TNF-a stimulation. Furthermore, the degradation of IkB protein was inhibited.
We next tested the ability of selected BI-69A11 analogs to inhibit the NF-kB pathway (FIG. 11). In this experiment, UACC903 cells were treated with vehicle, BI-69A11 or analog, stimulated with TNF-a, and harvested at 5 minutes post-stimulation. […]

The subject of a further data set is AKT. The experiment in a line: AKT expression by western blot in MCF7 breast cancer cells. The class given is cell-based. The note with it: MCF7, 5 and 10 micro.M. The procedure:
as §1
For western blotting techniques, cells were lysed in RIPA buffer containing 50 mM TrisHCl pH7.4, 150 mM NaCl, 2 mM EDTA, 1% NP-40, 0.1% SDS. The protein concentration was estimated using the Coomassie Protein assay kit (Thermo Scientific, Rockford, Ill., USA). Equal concentrations of cell lysate (30-50 ug) were resolved on a 10% polyacrylamide gel and transferred onto Nitrocellulose membrane (GE Amersham). Membranes were blocked for 1-2 hours in either 3% BSA or 5% nonfat dried milk in Tris-buffered saline containing 0.05% Tween 20. […]

Where [3] appears, read: 0.5-2.0 mg/kg intra-peritoneally twice per week, 3 weeks.

In the case of `O=C(/C=C/c1nc2ccccc2[nH]1)c1c(O)nc2ccc(Cl)cc2c1-c1ccccc1` [Compound 2, (E)-3-(3-(1H-benzo[d]imidazol-2-yl)acryloyl)-6-chloro-4-phenylquinolin-2(1H)-one], in data set [1] (setting [3]), the “growth of the melanoma tumors” value is “effectively inhibits further growth” and the “regression of the tumors” value is “efficient regression”. Further, in data set [1] (treatment groups 0.5-2.0 mg/kg), the “apoptosis in tumors by Tunel staining, compared with control tumors” value is given as “higher degrees of apoptosis”. Also, the “viability of MCF7 cells” value in the data set with MCF7 cells is “did not affect”. In data set [2], the “cytokines in the blood, treated vs. control” value is listed as “induction of TNFalpha” and the “toxicity by blood work” value is reported as “lack of toxicity”. In the data set on NF-kB pathway, the “degradation of IkB protein” value is “inhibited”. Further, the “IKK and IkB phosphorylation in response to TNF-a stimulation” value with NF-kB pathway (time course) is reported as “inhibited”. For the same compound, the AKT protein levels result with AKT is recorded as “not affected”.
